melting point	SMILES
89 to 99 °C	CN1C(=S)C(c2ccc(OC(F)(F)F)cc2)(c2cccc(-c3cccnc3F)c2)N=C1N (stereo unspecified)
250 to 255 °C	O=C(CCNc1c(C(=O)O)[nH]c2cc(Cl)ccc12)c1ccccc1
216 to 219 °C	CC(C)(C)Sc1c(CC(C)(C)C(=O)O)n(Cc2ccc(Cl)cc2)c2ccc(OCc3cnc4ccccc4n3)cc12
188 °C	COCC(=O)NS(=O)(=O)c1cccc(-c2cccc(-c3cc(-c4ccc(C(F)(F)F)cc4)cc(C)n3)n2)c1
251 to 253 °C	O=C1CCC(N2Cc3c(OCc4ccc(CNCCO)cc4)cccc3C2=O)C(=O)N1 (stereo unspecified)
59 to 60 °C	CCN(CC)CCOc1cccc2c1c1cccc(F)c1n2Cc1ccc(F)cc1
190 °C	COc1ccc(-n2c(-c3ccc(N(C)C)cc3)nnc2C(C)O)cc1 (stereo unspecified)
155 to 157 °C	CCCCc1ncc(CSc2ncccc2C(=O)O)n1Cc1ccc(C(=O)O)cc1
92 to 93 °C	Cc1nn(-c2ccccn2)c2ncc(C(=O)N(C)c3ccccc3)c(OCc3ccccc3)c12
98 to 100 °C	Nc1cccc(Oc2cccc3cccnc23)c1
122 to 123 °C	O=C(CC1c2ccccc2C(=O)N1c1ccccc1)N1CCCCC1 (stereo unspecified)
108 °C	COC(=O)C=NOCc1c(F)cccc1COc1ccccc1C
112 °C	c1ccc(CON=C2CC(=NOCc3ccccc3)c3ccccc3-c3ccccc32)cc1
156 to 160 °C	CCOC(=O)C1CCC(n2nc(-c3c(-c4ccccc4)nn4ccccc34)ccc2=O)CC1 (stereo unspecified)
65 to 80 °C	CS(=O)(=O)c1ccc(-c2cnn(-c3ccc(F)cc3)c(=O)c2COc2ccc(F)cc2)cc1
109 to 113 °C	C/C(Cl)=C/CCC(=O)C=P(c1ccccc1)(c1ccccc1)c1ccccc1
104 to 106 °C	Oc1c(Cc2ccccc2)ccc2[nH]ccc12

melting point	SMILES
74 °C	COC(=S)OC(C(=O)OC(c1ccccc1)c1ccccc1)c1ccccc1 (stereo unspecified)
127 to 128 °C	COc1ccc(CCc2nnc(-c3ccc4occc4c3)o2)cc1
103 to 105 °C	FC(F)(F)Oc1ccc(C=Cc2nc(CNc3ccc(CCCCn4ccnn4)cc3)co2)cc1
189 °C	COc1cc(C(=O)c2nc(Br)c3ccccn23)ccc1[N+](=O)[O-]
> 260 °C	COC(=O)CCc1ccc(-n2ccn(-c3ccc(C(=N)NC(=O)OC)cc3)c2=O)cc1
213 to 216 °C	Cc1nc(-n2c(=O)ccc3cc(OCc4ccccc4)ccc32)sc1C(=O)NCc1ccccc1
177 to 178 °C	O=C(Oc1ccc(Cl)c2c(=O)c3ccccc3sc12)c1ccccc1
114 to 116 °C	CCOC(=O)CCc1ccc(CCN2CCN(S(=O)(=O)c3ccccc3)CC2)cc1
68 to 70 °C	COCCOc1cccc2c(Nc3ccccc3C)c(C(=O)C(C)C)cnc12
192 to 194 °C	COc1ccc(C(NCC(C)c2ccccc2)c2cccc(Nc3c(N)c(=O)c3=O)c2)cc1 (stereo unspecified)
155 to 156 °C	COc1cccc(COc2ccc3oc(-c4nc(C(C)(C)C)cs4)cc3c2)c1OC(C)C(N)=O (stereo unspecified)
222 to 225 °C	O=C1C2CCCN2c2ncccc2N1Cc1ccccc1 (stereo unspecified)
236 to 238 °C	CCOC(=O)c1nn(-c2cccc(Cl)c2)c(=O)c2c1c1ccc(Cl)cc1n2C
141 to 142 °C	COc1ccc(CCOc2cccc(-c3cccc(C(N)=O)c3)n2)cc1OC
135 to 137 °C	Cn1cc(C2=C(c3cn(-c4ccccc4)c4ccccc34)C(=O)NC2=O)c2ccccc21
273 to 274 °C	O=C(C1CCCc2c1c1ccccc1n2Cc1ccccc1)N1CCN(c2ccccc2)CC1 (stereo unspecified)

Further lines, the molecule ahead of its results:

SMILES	melting point
COc1cc2c3c(c1)c(Cl)c(C(=O)N1CCc4ccccc41)c(=O)n3CCO2	158 to 160 °C
CNS(=O)(=O)c1cc(C(C)(C)C)cc(CNC(C)=O)c1O	173 to 174 °C
N#Cc1cc(N)ccc1N(CCO)CCO	38 °C
CC(C)(C#N)CN1C(=O)C2(OCCCO2)c2cc(Cl)ccc21	114 to 116 °C
COc1ccc2oc(=O)cc(Oc3c(Cl)cccc3Cl)c2c1	170 to 171 °C
Cc1nc2c3c(c(CO)cn2c1C)CCC(c1ccccc1)C3 (stereo unspecified)	290 to 292 °C
CCOC(=N)c1ccc(Cl)c(Cl)c1	62 to 64 °C
COc1ccnc(CSc2nc3cc4c(cc3[nH]2)OCO4)c1C	215 to 220 °C
CC(=O)Oc1cccc2c1C(=O)c1c(O)cccc1C2C(=O)C1CCCCC1 (stereo unspecified)	154 °C
C=CC(=O)N1c2ccccc2CC1C(=O)O (stereo unspecified)	158 to 160 °C
O=[N+]([O-])c1cc(C(F)(F)F)ccc1Sc1nc(-c2ccc(Cl)cc2)c(-c2ccc(Cl)cc2)[nH]1	264 to 266 °C
Cn1cnc([N+](=O)[O-])c1Oc1ccccc1	116 to 118 °C
COc1cc(-n2nc3ccc(Cl)cn3c2=O)c(F)cc1N	138 to 140 °C
CC1=C(/C=C/C(C)=C/C=C/C(C)=C\C(=O)O)C(C)(C)C(O)C=C1 (stereo unspecified)	108 to 110 °C
Nc1c2c(=O)c3ccccc3c(=O)c2c(N)c2c(=O)n(CCCO)c(=O)c12	261 to 262 °C
Cc1ccc(S(=O)(=O)C[N+](=O)[O-])s1	73 to 74 °C
CC(c1cn(C)c2ccccc12)N(O)C(N)=O (stereo unspecified)	149 to 150 °C
COCCOc1cc(OC)c(C(CC(=O)Nc2cc(C(N)=O)ccc2C(C)(C)C)CC(C)C)cc1Cl (stereo unspecified)	178 to 179 °C
Oc1ccc(-n2cnc3cc(O)cc(O)c3c2=S)cc1	299 to 302 °C
O=C(/C=C/c1cccc(F)c1)NC1CC1	90 to 91 °C
CC(C)(C)Oc1ccc(C(=O)N[C@H]2CC[C@H](CCN3CCC(c4cccc5c4CCO5)CC3)CC2)cc1	216 °C
COc1ccc2c3c(nn(CCO)c13)-c1ccccc1N2	275 °C
COc1ccc(N2CCOCC2)c2sc(C(=O)NCC(=O)c3ccsc3)nc12	170 °C

SMILES	melting point
C=C(C)CNc1cc(Cl)nnc1Cl	172 to 175 °C
CS(=O)(=O)CC(=O)Nc1c(C(=O)c2ccccc2)[nH]c2cc(Cl)ccc12	217 to 220 °C
COc1ccc([C@@H]2CCCC[C@H]2C#N)c(OC)c1OC (relative stereo)	69 to 72 °C
CC(C)C(Br)C(=O)NCC(=O)O (stereo unspecified)	138 to 139 °C
CCCCn1c(=O)c2[nH]cnc2n(CCCC)c1=S	137 °C
N#CN1CCC(c2nn(-c3ccccc3F)c3ccccc23)CC1	119 to 121 °C
CC(C)(C)OC(=O)/C(=C/C1CCCCC1)C(=O)c1ccccc1O	62 to 65 °C
CC(=O)Nc1nc(CCCl)cs1	161 to 163 °C
CC(C)=CCCC(C)=CCCC(C)=Cc1ccc(C(=O)O)cc1	92 to 92.5 °C
C[C@]1(CN2CCN(c3ccc(Cl)cc3)CC2)Cn2cc([N+](=O)[O-])nc2O1	218 to 220 °C
CCCCCCCCCCCCCCCCc1ccc(S(=O)(=O)Cl)cc1	35 to 36 °C
N#CCc1cccc2c1C=CN(C(=O)c1ccccc1)C2C#N (stereo unspecified)	66.4 to 69.7 °C
CC(C)(C)OC(=O)CON=C(C(=O)O)c1cccs1	88.3 to 91.3 °C
CCn1nc(C)cc1N	95 to 96 °C
CC(C)c1ccc(C(=O)Nc2cn3cc(-n4ccnc4)ccc3n2)cc1	291 to 293 °C
CC(C)(C)OC(=O)NCCOCCOCCNC(=O)CCCCC1SCC2NC(=O)NC21 (stereo unspecified)	106 to 108 °C
Cn1cc(-c2cccc(N3Cc4cc(C(C)(C)C)ccc4C3=O)c2CO)cc(Nc2ccc(C3CN(C(=O)OC(C)(C)C)C3)cn2)c1=O	151 to 152 °C
CC(C)(O)C1CC(c2ccc(-c3ccc(N4C[C@H](Cn5ccnn5)OC4=O)cc3F)cn2)=NO1 (stereo partly specified)	197 °C
OC(C#CCN1CCC(O)(c2ccc(Cl)cc2)CC1)c1ccc(F)cc1 (stereo unspecified)	145 to 146 °C
COC(=O)c1c(N)cccc1[N+](=O)[O-]	105 to 107 °C
Oc1cc(C(F)(F)F)nn1-c1ccc(Cl)cn1	58 to 59 °C
CC(SC1COC(C=CC=Cc2ccc(C#N)cc2F)OC1)C(O)(Cn1cncn1)c1ccc(F)cc1F (stereo unspecified)	111 to 112 °C
COc1cc(-c2ccc(C(F)(F)F)cc2)nc(SC)n1	82 to 84 °C

SMILES	melting point
CN(C)CCN(C)C(=O)Cc1ccc(NC(=O)OCc2ccccc2)cc1	109 to 110 °C
CC1Cc2ccc(Br)cc2C(c2ccc([N+](=O)[O-])cc2)=NN1C(N)=O (stereo unspecified)	193 to 203 °C
Cc1cc(C)cc(OCC(=O)c2ccccc2Br)c1	74 °C
CCOC(=O)Cc1nnnn1C	64 to 66 °C
CCCC#Cc1cnc(-c2ccc(F)cc2)nc1	51 °C
Cc1c(C(=O)N(CC(=O)O)c2ccc(N3CCC(O)CC3)c(C#N)c2)cnn1-c1ccc(F)cc1	155 to 158 °C
OCc1ncn2cc(Br)sc12	104 to 105 °C
CSc1ncc(Sc2nc(C)c(CC(=O)O)s2)c(C(=O)O)n1	238 to 239 °C
O=C1C(=Cc2cc(Br)cs2)CCc2cc(OCCn3ccnc3)ccc21	164 to 166 °C
COc1ccccc1C(=O)c1cccc(Br)n1	97 to 98 °C
COc1ccc(N2CCOCC2)c2sc(C(=O)O)nc12	99 to 100 °C
COC1=CC(=O)C2=C(C1=O)C1CCC2C1 (stereo unspecified)	106 to 108 °C
O=C(C(=O)c1cccc(I)c1)c1cccc(I)c1	127 °C
CCOc1ccc(NC=C(C#N)C(=O)Nc2cc(OC)c(Cl)cc2Cl)cc1Br	> 250 °C
CCOC(=O)c1c(C)nc2c(C(F)(F)F)cccc2c1O	165 °C
COC(=O)c1cc(-c2cccc(C(F)(F)F)c2)c(=O)n2c1-c1sccc1SCC2	190 to 191 °C
CCNc1cc(O)c(C(C)=O)cc1C(C)=O	103 to 104 °C
CCCCCn1c2ccc(CN3CCCCC3)cc2c2ccc(OC)cc21	64 to 65 °C
CC(O)C1CCC2C3C=CC4=CC(=O)C5OC5C4(C)C3CCC12C (stereo unspecified)	206 to 207 °C
Cc1c(C(=O)C(=O)NC2=CC(=O)OC2)c2ccccc2n1Cc1ccc(Cl)cc1	254 to 256 °C
CC(=O)NOCc1nc2c(N)nc3c(c2n1CC(C)C)CCCC3	187 to 188 °C
C=C1CSc2sccc2C1=O	64 to 65 °C
